Results: PMC8445441, “Elucidating the mechanism by which synthetic helper peptides sensitize Pseudomonas aeruginosa to multiple antibiotics” (PLoS Pathogens, 2021)
Like-named read-outs stand apart in the source and are kept apart here.

Columns and labels:
P. aeruginosa AUMC-Pa-3 = assay: microbe, parasite or virus in culture; conditions: for FICI: antibiotic + D-11 (MICb/MICbc 128/4); for MICac: MIC of the antibiotic in the combination: with D-11 at MICbc 4
How it was run: (§1)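 After 18 h at 37 °C, the lowest concentration showing no visible growth was read as the MIC. Drugs were serially diluted two-fold in MHB and combined with an equal volume of inoculum (~1 × 10^6 CFU/mL), following CLSI broth microdilution; run in triplicate.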

P. aeruginosa AUMC-Pa-4 = assay: microbe, parasite or virus in culture; conditions: for FICI: antibiotic + D-11 (MICb/MICbc 128/4); for MICac: MIC of the antibiotic in the combination: with D-11 at MICbc 4
How it was run: as §1

P. aeruginosa AUMC-Pa-5 = assay: microbe, parasite or virus in culture; conditions: for FICI: antibiotic + D-11 (MICb/MICbc 64/4); for MICac: MIC of the antibiotic in the combination: with D-11 at MICbc 4
How it was run: as §1

P. aeruginosa AUMC-Pa-6 = assay: microbe, parasite or virus in culture; conditions: strain AUMC-Pa-6; for FICI: antibiotic + D-11 (MICb/MICbc 64/4); for MICa: MIC of the antibiotic: antibiotic alone; for MICa: MIC of the antibiotic / MICac: MIC of the antibiotic in the combination: unit not given; for MICac: MIC of the antibiotic in the combination: with D-11 at MICbc 4
How it was run: as §1

P. aeruginosa PAO1 = assay: microbe, parasite or virus in culture; conditions: PAO1
How it was run: as §1

P. aeruginosa ATCC27853 = assay: microbe, parasite or virus in culture; parameters: MICa: MIC of the antibiotic / MICac: MIC of the antibiotic in the combination: unit not given beside the values; conditions: for FICI: antibiotic + D-11 (MICb/MICbc 32/4); for MICac: MIC of the antibiotic in the combination: with D-11 at MICbc 4
How it was run: as §1

P. aeruginosa NR-31040 = assay: microbe, parasite or virus in culture; parameters: MICa: MIC of the antibiotic / MICac: MIC of the antibiotic in the combination: unit not given beside the values; conditions: for FICI: antibiotic + D-11 (MICb/MICbc 128/4); for MICac: MIC of the antibiotic in the combination: with D-11 at MICbc 4
How it was run: as §1

P. aeruginosa NR-31041 = assay: microbe, parasite or virus in culture; parameters: MICa: MIC of the antibiotic / MICac: MIC of the antibiotic in the combination: unit not given beside the values; conditions: for FICI: antibiotic + D-11 (MICb/MICbc 64/4); for MICac: MIC of the antibiotic in the combination: with D-11 at MICbc 4
How it was run: as §1

P. aeruginosa PA14 = assay: microbe, parasite or virus in culture; parameters: MICa: MIC of the antibiotic / MICac: MIC of the antibiotic in the combination: unit not given beside the values; conditions: strain PA14; for FICI: antibiotic + D-11 (MICb/MICbc 128/4); for MICa: MIC of the antibiotic: antibiotic alone; for MICa: MIC of the antibiotic / MICac: MIC of the antibiotic in the combination: unit not given; for MICac: MIC of the antibiotic in the combination: with D-11 at MICbc 4
How it was run: as §1

P. aeruginosa PAK = assay: microbe, parasite or virus in culture; parameters: MICa: MIC of the antibiotic / MICac: MIC of the antibiotic in the combination: unit not given beside the values; conditions: for FICI: antibiotic + D-11 (MICb/MICbc 64/4); for MICac: MIC of the antibiotic in the combination: with D-11 at MICbc 4
How it was run: as §1

P. aeruginosa HM-214 = conditions: strain HM-214; antibiotic + D-11 (MICb/MICbc 128/4)
How it was run: as §1

P. aeruginosa AUMC-Pa-1 = conditions: strain AUMC-Pa-1; antibiotic + D-11 (MICb/MICbc 128/4)
How it was run: as §1

P. aeruginosa AUMC-Pa-2 = conditions: strain AUMC-Pa-2; antibiotic + D-11 (MICb/MICbc 64/4)
How it was run: as §1

[1] = tested on: clinical P. aeruginosa isolates; assay: microbe, parasite or virus in culture; conditions: Pseudomonas aeruginosa, 18 h, antibiotic alone
How it was run: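 MIC is the lowest drug concentration showing no visible growth after 18 h at 37 °C. Two-fold dilutions in MHB were combined with an equal volume of bacterial suspension (about 1 × 10^6 CFU/mL), following CLSI broth microdilution, in triplicate.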

[2] = strain AUMC-Pa-3, unit not given
[3] = strain AUMC-Pa-4, unit not given
[4] = strain AUMC-Pa-5, unit not given
[5] = strain ATCC27853, unit not given
[6] = strain NR-31040, unit not given
[7] = strain NR-31041, unit not given
[8] = read-out: Antibiotic sensibility (MIC) of clinical P. aeruginosa isolate AUMC-Pa-1, strain AUMC-Pa-1
[9] = read-out: Antibiotic sensibility (MIC) of clinical P. aeruginosa isolate AUMC-Pa-2, strain AUMC-Pa-2
[10] = read-out: Antibiotic sensibility (MIC) of clinical P. aeruginosa isolate AUMC-Pa-3, strain AUMC-Pa-3
[11] = read-out: Antibiotic sensibility (MIC) of clinical P. aeruginosa isolate AUMC-Pa-4, strain AUMC-Pa-4
[12] = read-out: Antibiotic sensibility (MIC) of clinical P. aeruginosa isolate AUMC-Pa-5, strain AUMC-Pa-5
[13] = read-out: Antibiotic sensibility (MIC) of clinical P. aeruginosa isolate AUMC-Pa-6, strain AUMC-Pa-6
[14] = read-out: Antibiotic sensibility (MIC) of clinical P. aeruginosa isolate HM-214, strain HM-214
[15] = read-out: Antibiotic sensibility (MIC) of clinical P. aeruginosa isolate NR-31040, strain NR-31040
[16] = read-out: Antibiotic sensibility (MIC) of clinical P. aeruginosa isolate NR-31041, strain NR-31041

C[C@H]1c2cccc(O)c2C(=O)C2=C(O)[C@]3(O)C(=O)C(C(N)=O)=C(O)[C@@H](N(C)C)[C@@H]3[C@@H](O)[C@@H]21 [Doxycycline]
MIC (P. aeruginosa AUMC-Pa-3; Pseudomonas aeruginosa, AUMCPA3, 18 h, read-out: MICa: MIC of the antibiotic): 16 µM | FICI (P. aeruginosa AUMC-Pa-3; strain AUMC-Pa-3): 0.063 | MICac: MIC of the antibiotic in the combination (P. aeruginosa AUMC-Pa-3; [2]): 0.5 | MIC (P. aeruginosa AUMC-Pa-4; Pseudomonas aeruginosa, AUMCPA4, 18 h, read-out: MICa: MIC of the antibiotic): 16 µM | FICI (P. aeruginosa AUMC-Pa-4; strain AUMC-Pa-4): 0.063 | MICac: MIC of the antibiotic in the combination (P. aeruginosa AUMC-Pa-4; [3]): 0.5 | FICI (P. aeruginosa AUMC-Pa-5; strain AUMC-Pa-5): 0.313 | MICa: MIC of the antibiotic (P. aeruginosa AUMC-Pa-5; strain AUMC-Pa-5, antibiotic alone, unit not given): 8 | MICac: MIC of the antibiotic in the combination (P. aeruginosa AUMC-Pa-5; [4]): 2 | FICI (P. aeruginosa AUMC-Pa-6): 0.125 | MICa: MIC of the antibiotic (P. aeruginosa AUMC-Pa-6): 16 | MICac: MIC of the antibiotic in the combination (P. aeruginosa AUMC-Pa-6): 1 | MIC (P. aeruginosa PAO1; Pseudomonas aeruginosa, PAO1, 18 h, read-out: MICa: the MIC of antibiotics, S3 Table, antibiotic alone): 16 µM | FICI (P. aeruginosa PAO1; S3 Table, antibiotic + 2 μM D-11): 0.094 | FICI (P. aeruginosa PAO1; S3 Table, antibiotic + 4 μM D-11): 0.141 | MICac: the MIC for the antibiotic in the combination (P. aeruginosa PAO1; S3 Table, with 2 μM D-11): 0.5 µM | MICac: the MIC for the antibiotic in the combination (P. aeruginosa PAO1; S3 Table, with 4 μM D-11): 0.25 µM | MICa: the MIC of antibiotics (P. aeruginosa PAO1; S3 Table, antibiotic alone): 16 µM | MIC (P. aeruginosa ATCC27853; Pseudomonas aeruginosa, ATCC27853, 18 h, read-out: MICa: MIC of the antibiotic): 16 µM | FICI (P. aeruginosa ATCC27853; strain ATCC27853): 0.156 | MICac: MIC of the antibiotic in the combination (P. aeruginosa ATCC27853; [5]): 0.5 | MIC (P. aeruginosa NR-31040; Pseudomonas aeruginosa, NR31040, 18 h, read-out: MICa: MIC of the antibiotic): 16 µM | FICI (P. aeruginosa NR-31040; strain NR-31040): 0.039 | MICac: MIC of the antibiotic in the combination (P. aeruginosa NR-31040; [6]): 0.125 | MIC (P. aeruginosa NR-31041; Pseudomonas aeruginosa, NR31041, 18 h, read-out: MICa: MIC of the antibiotic): 16 µM | FICI (P. aeruginosa NR-31041; strain NR-31041): 0.094 | MICac: MIC of the antibiotic in the combination (P. aeruginosa NR-31041; [7]): 0.5 | FICI (P. aeruginosa PA14): 0.094 | MICa: MIC of the antibiotic (P. aeruginosa PA14): 16 | MICac: MIC of the antibiotic in the combination (P. aeruginosa PA14): 1 | MIC (P. aeruginosa PAK; Pseudomonas aeruginosa, 18 h, read-out: MICa: MIC of the antibiotic): 16 µM | FICI (P. aeruginosa PAK; strain PAK): 0.094 | MICac: MIC of the antibiotic in the combination (P. aeruginosa PAK; strain PAK, unit not given): 0.5 | FICI (P. aeruginosa HM-214): 0.063 | FICI (P. aeruginosa AUMC-Pa-1): 0.063 | FICI (P. aeruginosa AUMC-Pa-2): 0.188 | MIC [1, 8]: 32 µM | MIC [1, 9]: 8 µM | MIC [1, 10]: 16 µM | MIC [1, 11]: 16 µM | MIC [1, 12]: 8 µM | MIC [1, 13]: 16 µM | MIC [1, 14]: 16 µM | MIC [1, 15]: 16 µM | MIC [1, 16]: 16 µM

CC[C@H]1OC(=O)[C@H](C)[C@@H](O[C@H]2C[C@@](C)(OC)[C@@H](O)[C@H](C)O2)[C@H](C)[C@@H](O[C@@H]2O[C@H](C)C[C@H](N(C)C)[C@H]2O)[C@](C)(OC)C[C@@H](C)C(=O)[C@H](C)[C@@H](O)[C@]1(C)O [Clarithromycin]
FICI (P. aeruginosa AUMC-Pa-3; strain AUMC-Pa-3): 0.094 | MICa: MIC of the antibiotic (P. aeruginosa AUMC-Pa-3; strain AUMC-Pa-3, antibiotic alone, unit not given): 128 | MICac: MIC of the antibiotic in the combination (P. aeruginosa AUMC-Pa-3; [2]): 8 | FICI (P. aeruginosa AUMC-Pa-4; strain AUMC-Pa-4): 0.281 | MICa: MIC of the antibiotic (P. aeruginosa AUMC-Pa-4; strain AUMC-Pa-4, antibiotic alone, unit not given): 128 | MICac: MIC of the antibiotic in the combination (P. aeruginosa AUMC-Pa-4; [3]): 32 | MIC (P. aeruginosa AUMC-Pa-5; Pseudomonas aeruginosa, AUMCPA5, 18 h, read-out: MICa: MIC of the antibiotic): > 128 µM | FICI (P. aeruginosa AUMC-Pa-5; strain AUMC-Pa-5): 0.188 | MICac: MIC of the antibiotic in the combination (P. aeruginosa AUMC-Pa-5; [4]): 32 | FICI (P. aeruginosa AUMC-Pa-6): 0.313 | MICa: MIC of the antibiotic (P. aeruginosa AUMC-Pa-6): 128 | MICac: MIC of the antibiotic in the combination (P. aeruginosa AUMC-Pa-6): 32 | MICa: the MIC of antibiotics (P. aeruginosa PAO1; S1 Table, macrolide alone): 128 µM | FICI (P. aeruginosa ATCC27853; strain ATCC27853): 0.188 | MICa: MIC of the antibiotic (P. aeruginosa ATCC27853; strain ATCC27853, antibiotic alone, unit not given): 128 | MICac: MIC of the antibiotic in the combination (P. aeruginosa ATCC27853; [5]): 8 | FICI (P. aeruginosa NR-31040; strain NR-31040): 0.281 | MICa: MIC of the antibiotic (P. aeruginosa NR-31040; strain NR-31040, antibiotic alone, unit not given): 128 | MICac: MIC of the antibiotic in the combination (P. aeruginosa NR-31040; [6]): 32 | FICI (P. aeruginosa NR-31041; strain NR-31041): 0.188 | MICa: MIC of the antibiotic (P. aeruginosa NR-31041; strain NR-31041, antibiotic alone, unit not given): 128 | MICac: MIC of the antibiotic in the combination (P. aeruginosa NR-31041; [7]): 16 | FICI (P. aeruginosa PA14): 0.281 | MICa: MIC of the antibiotic (P. aeruginosa PA14): 128 | MICac: MIC of the antibiotic in the combination (P. aeruginosa PA14): 32 | FICI (P. aeruginosa PAK; strain PAK): 0.188 | MICa: MIC of the antibiotic (P. aeruginosa PAK; strain PAK, antibiotic alone, unit not given): 128 | MICac: MIC of the antibiotic in the combination (P. aeruginosa PAK; strain PAK, unit not given): 16 | FICI (P. aeruginosa HM-214): 0.281 | FICI (P. aeruginosa AUMC-Pa-1): 0.156 | FICI (P. aeruginosa AUMC-Pa-2): 0.313 | MIC [1, 8]: 128 µM | MIC [1, 9]: 128 µM | MIC [1, 10]: 128 µM | MIC [1, 11]: 128 µM | MIC [1, 12]: > 128 µM | MIC [1, 13]: 128 µM | MIC [1, 14]: 128 µM | MIC [1, 15]: 128 µM | MIC [1, 16]: 128 µM
